{"source": "patent US20250195452A1", "about": "“ER-BETA ESTROGENIC COMPOUNDS AND METHODS OF USE” (laterion, Inc., priority 2022, published 2025)", "key": {"[1]": {"target": "T1, ERα (Homo sapiens, UniProt P03372)", "T1 construct": "expressed in transfected cells; host or cells: U2OS", "T1 sequence (P03372 1-595)": "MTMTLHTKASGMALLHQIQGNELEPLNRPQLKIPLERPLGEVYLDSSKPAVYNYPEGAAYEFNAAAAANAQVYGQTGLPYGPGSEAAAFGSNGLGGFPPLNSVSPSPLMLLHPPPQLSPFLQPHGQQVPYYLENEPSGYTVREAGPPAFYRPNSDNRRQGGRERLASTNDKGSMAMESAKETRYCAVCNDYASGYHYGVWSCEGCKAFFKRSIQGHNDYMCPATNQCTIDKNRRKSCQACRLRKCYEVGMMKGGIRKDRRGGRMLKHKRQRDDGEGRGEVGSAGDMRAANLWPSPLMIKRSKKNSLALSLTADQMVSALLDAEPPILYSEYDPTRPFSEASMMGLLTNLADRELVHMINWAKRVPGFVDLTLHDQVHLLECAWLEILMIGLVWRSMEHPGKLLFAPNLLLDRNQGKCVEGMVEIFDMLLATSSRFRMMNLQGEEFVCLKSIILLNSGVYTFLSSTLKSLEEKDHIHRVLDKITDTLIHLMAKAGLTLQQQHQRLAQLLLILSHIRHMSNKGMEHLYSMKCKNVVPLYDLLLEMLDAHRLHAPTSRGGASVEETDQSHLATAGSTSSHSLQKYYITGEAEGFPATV", "assay": "Luciferase activity of ligands on the activation of the NKG2E ERE in U2OS-ERα cells", "format": "cell-based", "details": "for Activity in ERα U2OS cells: indicated micromolar concentrations, 24 hours; for Activation of ERα (NKG2E ERE luciferase activity): U2OS-ERα cells", "source_text": "(§1) U2OS cells (wild type) were maintained in 5% charcoal-dextran stripped FBS."}, "[2]": {"target": "T2, ERβ (Homo sapiens, UniProt Q92731)", "T2 construct": "expressed in transfected cells; host or cells: U2OS", "T2 sequence (Q92731 whole entry)": "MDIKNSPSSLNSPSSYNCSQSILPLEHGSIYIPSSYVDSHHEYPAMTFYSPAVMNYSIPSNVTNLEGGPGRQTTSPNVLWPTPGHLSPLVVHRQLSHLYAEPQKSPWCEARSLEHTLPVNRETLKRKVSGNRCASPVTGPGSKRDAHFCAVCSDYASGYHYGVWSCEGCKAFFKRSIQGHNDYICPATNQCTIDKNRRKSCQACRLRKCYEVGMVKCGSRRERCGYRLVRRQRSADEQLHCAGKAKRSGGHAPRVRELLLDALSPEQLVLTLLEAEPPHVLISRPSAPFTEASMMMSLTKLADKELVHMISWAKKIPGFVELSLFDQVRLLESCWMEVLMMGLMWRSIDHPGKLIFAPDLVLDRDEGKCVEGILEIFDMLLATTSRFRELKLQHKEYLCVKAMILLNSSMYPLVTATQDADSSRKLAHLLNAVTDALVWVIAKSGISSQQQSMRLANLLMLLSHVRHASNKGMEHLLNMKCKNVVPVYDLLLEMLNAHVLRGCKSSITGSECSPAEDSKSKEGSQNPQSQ", "assay": "Luciferase activity in U2OS cells transfected with NKG2E-TK-Luc and ERβ", "format": "cell-based", "details": "200 nM", "method": "as §1\nLuciferase activity for each of the tested compounds was recorded."}, "[3]": {"assay": "Effects of ERβ compounds on uterine weight (histology, FIG. 16A-B)", "format": "in vivo", "details": "in comparison to estradiol", "source_text": "Example 11: Effects of ERβ compounds on uterine and breast cancer cells."}, "[4]": {"system": "MCF-7 breast cancer cells", "assay": "Effects of ERβ compounds on breast cancer tumor formation (histology, FIG. 16A-B)", "format": "in vivo", "details": "in comparison to estradiol"}, "[5]": {"system": "GRE-TK-Luk, GR, and ERβ", "assay": "Luciferase activity in GRE-TK-Luc-transfected U2OS-ERβ cells with doxycycline and hydrocortisone", "format": "cell-based", "details": "HC 100 nM; compounds at 0.5, 1, 2.5 and 5 μM; doxycycline", "method": "Example 12: Luciferase Activity in GRE-TK-Luc-Transfected U2OS-ERβ cells with doxycycline. Doxycycline-dependent U2OS cells were transfected with GRE-TK-Luk, GR, and ERβ in the presence of hydrocortisone (HC, 100 nM) alone or in combination with Liquiritigenin, A10, A13, and A15. Luciferase activity for each of the compounds at 0.5, 1, 2.5 and 5 μM concentration was recorded."}}, "note": "“Also recorded” adds a separate entry of the source."}
{"compound": "COc1c(O)cc(O)c2c(=O)cc(-c3ccccc3)oc12", "note": "[Wogonin]", "values": [{"measurement": "Activity in ERα U2OS cells", "setting": "[1]", "result": "little or no activity"}]}
{"compound": "C=C[C@H](/C=C\\c1ccc(O)cc1)c1ccc(O)cc1", "note": "[Nyasol]", "values": [{"measurement": "Activation of ERβ (NKG2E-TK-Luc luciferase activity)", "setting": "[2]", "result": "activate ERβ"}, {"measurement": "Activation of ERα (NKG2E ERE luciferase activity)", "setting": "[1]; 1 μM", "result": "activate ERα"}, {"measurement": "Activity in ERα U2OS cells", "setting": "[1]", "result": "little or no activity"}, {"measurement": "Uterine weight", "setting": "[3]", "result": "do not increase uterine weight"}, {"measurement": "Breast cancer tumor formation", "setting": "[4]; listed as IATERB5", "result": "do not increase uterine weight or cause breast cancer tumor formation; also recorded: do not increase uterine breast cancer tumor formation"}]}
{"compound": "Broussonin A", "values": [{"measurement": "Activation of ERα (NKG2E ERE luciferase activity)", "setting": "[1]; 1 μM", "result": "activate ERα"}, {"measurement": "Activity in ERα U2OS cells", "setting": "[1]", "result": "little or no activity"}]}
{"compound": "O=C(/C=C/c1ccc(O)cc1)c1ccccc1", "note": "[A15, (E)-3-(4-hydroxyphenyl)-1-phenylprop-2-en-1-one]", "values": [{"measurement": "Effect on hydrocortisone (HC) induced luciferase activity", "setting": "[5]", "result": "attenuated the effect of HC"}]}
{"compound": "O=c1c(O)c(-c2ccccc2)oc2cc(O)cc(O)c12", "note": "[Galangin]", "values": [{"measurement": "Activity in ERα U2OS cells", "setting": "[1]", "result": "little or no activity"}]}
{"compound": "O=c1cc(-c2ccc(O)cc2)oc2ccc(O)cc12", "note": "[6,4′-Dihydroxyflavone]", "values": [{"measurement": "Activation of ERβ (NKG2E-TK-Luc luciferase activity)", "setting": "[2]", "result": "activate ERβ"}, {"measurement": "Activation of ERα (NKG2E ERE luciferase activity)", "setting": "[1]; 1 μM", "result": "activate ERα"}, {"measurement": "Activity in ERα U2OS cells", "setting": "[1]", "result": "little or no activity"}]}
{"compound": "O=c1cc(-c2ccc(O)cc2)oc2cccc(O)c12", "note": "[5,4′-Dihydroxyflavone]", "values": [{"measurement": "Activation of ERβ (NKG2E-TK-Luc luciferase activity)", "setting": "[2]", "result": "activate ERβ"}, {"measurement": "Activity in ERα U2OS cells", "setting": "[1]", "result": "little or no activity"}]}
{"compound": "COc1c(O)cc2oc(-c3ccc(O)c(O)c3)cc(=O)c2c1O", "note": "[6-methoxyluteolin]", "values": [{"measurement": "Activity in ERα U2OS cells", "setting": "[1]", "result": "little or no activity"}]}
{"compound": "Oc1ccc([C@H]2COc3cc(O)ccc3C2)cc1", "note": "[Equol]", "values": [{"measurement": "Activation of ERα (NKG2E ERE luciferase activity)", "setting": "[1]; 1 μM", "result": "activate ERα"}, {"measurement": "Activity in ERα U2OS cells", "setting": "[1]", "result": "little or no activity"}]}
{"compound": "O=c1c(O)c(-c2ccc(O)cc2)oc2ccccc12", "note": "[3,4′-Dihydroxyflavone]", "values": [{"measurement": "Activity in ERα U2OS cells", "setting": "[1]", "result": "little or no activity"}]}
{"compound": "O=C(/C=C/c1cccc(O)c1)c1ccc(O)c(O)c1O", "note": "[A10, (E)-3-(3-hydroxyphenyl)-1-(2,3,4-trihydroxyphenyl) prop-2-en-1-one]", "values": [{"measurement": "Effect on hydrocortisone (HC) induced luciferase activity", "setting": "[5]", "result": "attenuated the effect of HC"}]}
{"compound": "O=c1cc(-c2ccc(O)c(O)c2)oc2cc(O)cc(O)c12", "note": "[Luteolin]", "values": [{"measurement": "Activity in ERα U2OS cells", "setting": "[1]", "result": "little or no activity"}]}
{"compound": "COc1ccc(-c2coc3cc(O)ccc3c2=O)cc1O", "note": "[Calycosin]", "values": [{"measurement": "Activity in ERα U2OS cells", "setting": "[1]", "result": "little or no activity"}, {"measurement": "Uterine weight", "setting": "[3]", "result": "do not increase uterine weight"}, {"measurement": "Breast cancer tumor formation", "setting": "[4]; listed as IATERB6", "result": "do not increase uterine weight or cause breast cancer tumor formation; also recorded: do not increase uterine breast cancer tumor formation"}]}
{"compound": "O=c1cc(-c2ccccc2O)oc2cc(O)ccc12", "note": "[7,2′-Dihydroxyflavone]", "values": [{"measurement": "Activity in ERα U2OS cells", "setting": "[1]", "result": "little or no activity"}]}
{"compound": "O=C1C[C@@H](c2ccc(O)cc2)Oc2cc(O)cc(O)c21", "note": "[Naringenin]", "values": [{"measurement": "Activation of ERβ (NKG2E-TK-Luc luciferase activity)", "setting": "[2]", "result": "activate ERβ"}, {"measurement": "Activity in ERα U2OS cells", "setting": "[1]", "result": "little or no activity"}]}
{"compound": "O=C(/C=C/c1ccc(O)cc1)c1ccc(O)cc1", "note": "[Analog 13, (E)-1,3-bis(4-hydroxyphenyl) prop-2-en-1-one]", "values": [{"measurement": "Activation of ERβ (NKG2E-TK-Luc luciferase activity)", "setting": "[2]", "result": "activate ERβ"}, {"measurement": "Activation of ERα (NKG2E ERE luciferase activity)", "setting": "[1]; 5 μM", "result": "activate ERα"}, {"measurement": "Effect on hydrocortisone (HC) induced luciferase activity", "setting": "[5]", "result": "attenuated the effect of HC"}]}
{"compound": "O=c1cc(-c2ccc(O)cc2)oc2cc(O)cc(O)c12", "note": "[Apigenin]", "values": [{"measurement": "Activation of ERβ (NKG2E-TK-Luc luciferase activity)", "setting": "[2]", "result": "activate ERβ"}]}
{"compound": "O=C1C[C@@H](c2ccc(O)cc2)Oc2cc(O)ccc21", "note": "[Liquiritigenin]", "values": [{"measurement": "Activation of ERα (NKG2E ERE luciferase activity)", "setting": "[1]; 5 μM", "result": "activate ERα"}, {"measurement": "Activity in ERα U2OS cells", "setting": "[1]", "result": "little or no activity"}, {"measurement": "Uterine weight", "setting": "[3]", "result": "do not increase uterine weight"}, {"measurement": "Breast cancer tumor formation", "setting": "[4]; listed as IATERB7", "result": "do not increase uterine weight or cause breast cancer tumor formation; also recorded: do not increase uterine breast cancer tumor formation"}, {"measurement": "Effect on hydrocortisone (HC) induced luciferase activity", "setting": "[5]", "result": "attenuated the effect of HC"}]}
{"compound": "O=c1cc(-c2cccc(O)c2)oc2cc(O)ccc12", "note": "[7,3′-Dihydroxyflavone]", "values": [{"measurement": "Activity in ERα U2OS cells", "setting": "[1]", "result": "little or no activity"}]}
{"compound": "O=c1cc(-c2ccc(O)cc2)oc2cc(O)ccc12", "note": "[7,4′-Dihydroxyflavone]", "values": [{"measurement": "Activation of ERβ (NKG2E-TK-Luc luciferase activity)", "setting": "[2]", "result": "activate ERβ"}, {"measurement": "Activation of ERα (NKG2E ERE luciferase activity)", "setting": "[1]; 5 μM", "result": "activate ERα"}, {"measurement": "Activity in ERα U2OS cells", "setting": "[1]", "result": "little or no activity"}]}
